Literature values in patent US20200352901A1, “TETRAHYDROCANNABINOL MODULATORS” (priority 2017, published 2020).
Where two headings read alike, the source gives them in different places.

Assays:
CYP2B6 = CYP2B6 (Homo sapiens, UniProt P20813); conditions: standard substrate of CYP2B6
CYP2C8 = biological target: T1, CYP2C8 (Homo sapiens, UniProt P10632); conditions: standard substrate of CYP2C8
T1 sequence (P10632 1-490): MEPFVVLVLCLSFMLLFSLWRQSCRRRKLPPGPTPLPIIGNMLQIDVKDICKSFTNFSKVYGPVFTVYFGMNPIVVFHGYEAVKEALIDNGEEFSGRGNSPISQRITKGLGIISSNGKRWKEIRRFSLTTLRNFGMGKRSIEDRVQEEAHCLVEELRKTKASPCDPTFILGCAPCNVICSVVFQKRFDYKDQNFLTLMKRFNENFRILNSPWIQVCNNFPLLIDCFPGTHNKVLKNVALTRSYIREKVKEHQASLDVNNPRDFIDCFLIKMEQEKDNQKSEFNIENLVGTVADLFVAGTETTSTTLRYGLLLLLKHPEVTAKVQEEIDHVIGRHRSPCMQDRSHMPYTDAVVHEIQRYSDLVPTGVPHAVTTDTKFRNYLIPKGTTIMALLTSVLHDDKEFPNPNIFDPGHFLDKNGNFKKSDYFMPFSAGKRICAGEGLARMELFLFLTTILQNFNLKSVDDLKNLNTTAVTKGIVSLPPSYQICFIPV

CB1 [1] = biological target: T2, CB1 (Homo sapiens, UniProt P21554); conditions: read-out: Binding affinity to CB1
Target sequence in this assay (P21554 whole entry): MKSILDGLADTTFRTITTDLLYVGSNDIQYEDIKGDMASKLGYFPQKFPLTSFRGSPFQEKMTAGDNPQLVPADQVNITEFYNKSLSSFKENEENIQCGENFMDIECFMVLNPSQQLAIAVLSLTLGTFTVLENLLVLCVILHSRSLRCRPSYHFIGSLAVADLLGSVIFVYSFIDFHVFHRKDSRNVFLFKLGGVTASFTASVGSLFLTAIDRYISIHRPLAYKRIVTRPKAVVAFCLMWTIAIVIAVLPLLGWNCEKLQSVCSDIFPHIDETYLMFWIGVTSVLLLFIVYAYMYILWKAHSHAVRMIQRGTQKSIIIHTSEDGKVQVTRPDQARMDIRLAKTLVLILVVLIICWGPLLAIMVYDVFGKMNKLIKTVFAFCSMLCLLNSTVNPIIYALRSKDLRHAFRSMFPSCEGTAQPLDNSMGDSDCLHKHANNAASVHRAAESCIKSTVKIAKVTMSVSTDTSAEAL

CB1 [2] = biological target: T2, CB1
Target sequence in this assay (P21554 whole entry): as above

human CB2 receptor [3] = biological target: T3, human CB2 receptor (Homo sapiens, UniProt P34972)
human CB2 receptor [4] = biological target: T3, human CB2 receptor; conditions: cells expressing human CB2 receptor; radioligand binding; read-out: Binding affinity to CB2
UGT1A9 = biological target: T4, UGT1A9 (Homo sapiens, UniProt O60656); conditions: at 200 micromolar carvacrol; test substrate 4-methylumbelliferone
T4 sequence (O60656 26-530): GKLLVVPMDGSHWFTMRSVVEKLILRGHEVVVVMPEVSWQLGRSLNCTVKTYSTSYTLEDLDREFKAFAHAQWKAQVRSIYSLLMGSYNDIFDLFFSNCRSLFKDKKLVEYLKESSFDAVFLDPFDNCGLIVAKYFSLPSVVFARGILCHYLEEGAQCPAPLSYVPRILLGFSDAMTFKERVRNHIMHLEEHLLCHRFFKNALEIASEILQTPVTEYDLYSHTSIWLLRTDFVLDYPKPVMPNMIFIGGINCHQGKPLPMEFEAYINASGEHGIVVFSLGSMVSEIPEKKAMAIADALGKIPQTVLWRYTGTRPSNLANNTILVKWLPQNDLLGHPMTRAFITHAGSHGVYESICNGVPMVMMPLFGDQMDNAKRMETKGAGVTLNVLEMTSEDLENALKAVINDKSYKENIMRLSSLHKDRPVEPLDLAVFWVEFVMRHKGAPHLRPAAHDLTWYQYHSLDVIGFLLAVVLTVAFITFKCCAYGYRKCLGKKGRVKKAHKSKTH

CYP1A2 = biological target: T5, CYP1A2 (Homo sapiens, UniProt P05177); conditions: read-out: IC(50) for CYP1A2 inhibition
T5 sequence (P05177 1-516): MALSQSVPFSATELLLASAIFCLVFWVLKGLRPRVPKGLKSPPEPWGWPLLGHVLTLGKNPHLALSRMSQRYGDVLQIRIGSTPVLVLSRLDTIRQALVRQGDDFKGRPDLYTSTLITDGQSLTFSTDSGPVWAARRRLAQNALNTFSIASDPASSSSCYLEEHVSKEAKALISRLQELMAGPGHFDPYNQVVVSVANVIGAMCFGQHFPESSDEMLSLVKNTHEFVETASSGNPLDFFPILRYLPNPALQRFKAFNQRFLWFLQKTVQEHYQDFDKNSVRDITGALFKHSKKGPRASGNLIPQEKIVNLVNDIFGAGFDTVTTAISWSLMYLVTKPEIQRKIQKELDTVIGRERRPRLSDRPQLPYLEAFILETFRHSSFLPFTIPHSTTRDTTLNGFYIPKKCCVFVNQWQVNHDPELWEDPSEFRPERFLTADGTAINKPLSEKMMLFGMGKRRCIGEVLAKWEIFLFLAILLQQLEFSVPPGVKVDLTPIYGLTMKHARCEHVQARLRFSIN

CYP3A4 [5] = biological target: T6, CYP3A4 (Homo sapiens, UniProt P08684); conditions: read-out: IC(50) for CYP3A4 inhibition
CYP2C9 [6] = biological target: T7, CYP2C9 (Homo sapiens, UniProt P11712); conditions: read-out: IC(50) for CYP2C9 inhibition
CB1 [7] = biological target: T2, CB1; remark: listed apart in the source
Target sequence in this assay (P21554 whole entry, species assumed): as the sequence (P21554 whole entry) above

UGT1A10 = biological target: T8, UGT1A10 (Homo sapiens, UniProt Q9HAW8); conditions: extrahepatic isoform UGT1A10
T8 sequence (Q9HAW8 26-530): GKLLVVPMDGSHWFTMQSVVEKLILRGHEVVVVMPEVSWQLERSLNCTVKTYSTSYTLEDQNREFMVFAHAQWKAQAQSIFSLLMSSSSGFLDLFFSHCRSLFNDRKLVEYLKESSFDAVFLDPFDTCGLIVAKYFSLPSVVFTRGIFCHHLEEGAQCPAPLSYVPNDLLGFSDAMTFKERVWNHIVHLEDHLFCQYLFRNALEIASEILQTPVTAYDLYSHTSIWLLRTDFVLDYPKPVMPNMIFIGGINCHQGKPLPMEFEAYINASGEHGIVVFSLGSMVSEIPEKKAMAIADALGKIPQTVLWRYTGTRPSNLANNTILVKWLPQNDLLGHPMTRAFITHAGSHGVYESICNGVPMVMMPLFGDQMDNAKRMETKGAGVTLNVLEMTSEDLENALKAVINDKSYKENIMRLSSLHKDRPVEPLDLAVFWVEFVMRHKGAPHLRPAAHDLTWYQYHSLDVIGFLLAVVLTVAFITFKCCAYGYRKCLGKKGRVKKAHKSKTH

CYP2A6 = CYP2A6 (Homo sapiens, UniProt P11509); conditions: standard substrate of CYP2A6
CYP3A4 [8] = biological target: T6, CYP3A4; conditions: standard substrate of CYP3A4
CYP2D6 = CYP2D6 (Homo sapiens, UniProt P10635); conditions: standard substrate of CYP2D6
CYP2C9 [9] = biological target: T7, CYP2C9; conditions: standard substrate of CYP2C9

T3 sequence (P34972 whole entry): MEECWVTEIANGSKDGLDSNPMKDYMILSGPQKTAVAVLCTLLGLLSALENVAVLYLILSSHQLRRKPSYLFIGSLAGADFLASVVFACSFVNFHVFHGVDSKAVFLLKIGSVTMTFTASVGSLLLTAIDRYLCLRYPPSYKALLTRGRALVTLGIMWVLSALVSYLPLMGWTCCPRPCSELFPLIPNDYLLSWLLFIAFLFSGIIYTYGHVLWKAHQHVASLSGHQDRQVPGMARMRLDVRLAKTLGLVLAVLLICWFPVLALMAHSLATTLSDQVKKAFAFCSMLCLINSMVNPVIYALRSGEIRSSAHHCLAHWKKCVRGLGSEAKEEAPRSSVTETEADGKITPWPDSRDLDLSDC
T7 sequence (P11712 whole entry): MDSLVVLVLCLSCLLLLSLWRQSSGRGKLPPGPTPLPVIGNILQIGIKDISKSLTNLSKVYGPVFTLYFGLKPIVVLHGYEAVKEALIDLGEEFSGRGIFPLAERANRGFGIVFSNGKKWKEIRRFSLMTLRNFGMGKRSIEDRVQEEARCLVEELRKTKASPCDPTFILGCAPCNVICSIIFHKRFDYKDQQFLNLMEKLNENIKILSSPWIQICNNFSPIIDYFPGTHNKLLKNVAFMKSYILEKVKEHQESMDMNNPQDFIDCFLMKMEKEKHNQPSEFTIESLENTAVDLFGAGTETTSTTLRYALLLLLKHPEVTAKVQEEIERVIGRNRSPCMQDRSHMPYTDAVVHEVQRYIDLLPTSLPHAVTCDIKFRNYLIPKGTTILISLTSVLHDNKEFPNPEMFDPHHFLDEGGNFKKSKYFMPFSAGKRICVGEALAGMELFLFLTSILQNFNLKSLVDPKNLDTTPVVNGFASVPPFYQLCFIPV
T6 sequence (P08684 whole entry): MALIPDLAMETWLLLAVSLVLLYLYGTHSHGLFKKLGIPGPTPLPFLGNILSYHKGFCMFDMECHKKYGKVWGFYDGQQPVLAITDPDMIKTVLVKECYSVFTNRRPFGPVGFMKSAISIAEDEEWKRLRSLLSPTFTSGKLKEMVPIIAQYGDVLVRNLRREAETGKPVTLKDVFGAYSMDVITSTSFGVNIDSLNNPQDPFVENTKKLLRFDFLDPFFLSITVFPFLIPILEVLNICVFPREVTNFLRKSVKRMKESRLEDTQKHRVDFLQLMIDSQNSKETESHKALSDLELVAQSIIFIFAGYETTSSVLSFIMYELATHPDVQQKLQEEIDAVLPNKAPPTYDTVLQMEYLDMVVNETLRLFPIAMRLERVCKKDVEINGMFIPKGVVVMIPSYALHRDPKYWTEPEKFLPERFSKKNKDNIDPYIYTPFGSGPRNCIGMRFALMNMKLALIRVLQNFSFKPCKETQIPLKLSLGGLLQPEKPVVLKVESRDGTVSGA
Chain of CYP2A6 (P11509 whole entry): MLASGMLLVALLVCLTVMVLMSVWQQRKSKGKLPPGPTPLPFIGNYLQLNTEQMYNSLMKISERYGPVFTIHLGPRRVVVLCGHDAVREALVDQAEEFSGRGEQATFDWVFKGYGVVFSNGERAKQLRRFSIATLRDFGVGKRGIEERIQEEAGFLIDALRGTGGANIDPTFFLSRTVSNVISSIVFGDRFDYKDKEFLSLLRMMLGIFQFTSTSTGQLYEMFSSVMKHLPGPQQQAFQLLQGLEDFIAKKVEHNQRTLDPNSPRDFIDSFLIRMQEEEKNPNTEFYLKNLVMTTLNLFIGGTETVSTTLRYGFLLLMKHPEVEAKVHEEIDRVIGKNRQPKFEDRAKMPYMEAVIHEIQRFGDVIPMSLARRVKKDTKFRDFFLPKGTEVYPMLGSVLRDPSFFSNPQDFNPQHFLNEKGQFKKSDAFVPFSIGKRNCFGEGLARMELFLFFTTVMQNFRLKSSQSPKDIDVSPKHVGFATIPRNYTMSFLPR
Chain of CYP2D6 (P10635 whole entry): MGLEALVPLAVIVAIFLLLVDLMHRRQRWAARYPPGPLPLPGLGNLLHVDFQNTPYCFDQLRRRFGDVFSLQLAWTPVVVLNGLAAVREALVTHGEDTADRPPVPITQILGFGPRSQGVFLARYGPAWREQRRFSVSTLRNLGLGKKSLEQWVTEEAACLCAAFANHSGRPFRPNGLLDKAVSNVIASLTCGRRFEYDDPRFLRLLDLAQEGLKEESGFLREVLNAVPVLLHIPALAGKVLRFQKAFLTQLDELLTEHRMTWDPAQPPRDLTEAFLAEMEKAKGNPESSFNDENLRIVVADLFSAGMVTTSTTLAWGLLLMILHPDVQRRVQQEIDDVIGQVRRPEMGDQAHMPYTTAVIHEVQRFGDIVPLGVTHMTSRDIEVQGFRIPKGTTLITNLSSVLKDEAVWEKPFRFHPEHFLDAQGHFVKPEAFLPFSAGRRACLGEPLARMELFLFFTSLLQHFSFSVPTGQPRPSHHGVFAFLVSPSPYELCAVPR
Chain of CYP2B6 (P20813 whole entry): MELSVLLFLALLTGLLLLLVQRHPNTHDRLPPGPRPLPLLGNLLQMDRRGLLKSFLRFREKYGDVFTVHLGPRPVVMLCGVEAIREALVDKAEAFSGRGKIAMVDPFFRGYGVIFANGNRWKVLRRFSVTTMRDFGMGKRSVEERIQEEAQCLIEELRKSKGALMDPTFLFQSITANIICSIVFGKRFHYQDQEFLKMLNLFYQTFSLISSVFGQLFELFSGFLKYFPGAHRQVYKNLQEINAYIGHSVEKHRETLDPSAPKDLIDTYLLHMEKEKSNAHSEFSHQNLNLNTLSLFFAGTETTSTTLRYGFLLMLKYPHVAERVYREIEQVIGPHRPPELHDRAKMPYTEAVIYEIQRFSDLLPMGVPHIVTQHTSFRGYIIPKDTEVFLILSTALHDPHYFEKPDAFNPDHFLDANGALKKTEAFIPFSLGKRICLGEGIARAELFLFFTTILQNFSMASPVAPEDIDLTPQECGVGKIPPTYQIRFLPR

SMILES: CC(NC(C)(C)C)C(=O)c1cccc(Cl)c1 (stereo not shown) [bupropion]
- Km (CYP2B6): 137 µM

SMILES: CCN(CC)Cc1cc(Nc2ccnc3cc(Cl)ccc23)ccc1O [amodiaquine]
- Km (CYP2C8): 0.9 µM

SMILES: CCCCCc1cc(O)c2c(c1)OC(C)(C)C1CC=C(C)C(O)C21 (stereo not drawn) [Compound 3, 10-alpha-hydroxy-delta-8-THC]
- Ki (CB1 [1]): 0.031 µM
- Functional character at CB1 (CB1 [2]): partial agonist
- Functional character at CB2 (human CB2 receptor [3]): partial agonist
- Ki (human CB2 receptor [4]): 0.03 µM

SMILES: Cc1ccc(C(C)C)cc1O [carvacrol]
- 4-methylumbelliferone glucuronidation activity remaining (UGT1A9): 20 % maximal activity

SMILES: CCCCCc1cc(O)c2c(c1)OC(C)(C)C1CC(O)C(C)=CC21 (single isomer, unassigned) [Compound 1, 8-alpha-hydroxy-delta-9-THC]
- Ki (CB1 [1]): 1.91 µM
- Ki (human CB2 receptor [4]): 3.22 µM

SMILES: CCCCCc1cc(O)c2c(c1)OC(C)(C)C1CC(O)C(C)=CC21 (single isomer, unassigned) [Compound 2, 8-beta-hydroxy-delta-9-THC]
- Ki (CB1 [1]): 0.065 µM
- Ki (human CB2 receptor [4]): 0.088 µM

SMILES: CC(C)=C1C[C@@H]2O[C@@]2(C)CC/C=C(\C)CC1=O [Compound 7, (4S,5S)-(−)-germacrone-4,5-epoxide]
- IC50 (CYP1A2): 33.2 ± 3.6 µM
- IC50 (CYP3A4 [5]): 1 ± 0.2 µM
- IC50 (CYP2C9 [6]): 7.6 ± 2.5 µM

SMILES: CCCCCc1cc(O)c2c(c1)OC(C)(C)[C@@H]1CCC(CO)=C[C@@H]21 [Compound 11-OH-THC, 11-hydroxy-delta-9-tetrahydrocannabinol]
- Functional character at CB1 (CB1 [7]): agonists
- Km (UGT1A10): 16 µM

SMILES: O=c1ccc2ccccc2o1 [coumarin]
- Km (CYP2A6): 1 µM

SMILES: CCCCCc1cc(O)c2c(c1)OC(C)(C)[C@@H]1CC=C(CO)C[C@@H]21 [11-hydroxy-delta-8-THC]
- Functional character at CB1 (CB1 [7]): agonists

SMILES: C[C@]12CC[C@H]3[C@@H](CCC4=CC(=O)CC[C@@]43C)[C@@H]1CC[C@@H]2O [testosterone]
- Km (CYP3A4 [8]): 64 µM

SMILES: Cc1ncc2n1-c1ccc(Cl)cc1C(c1ccccc1F)=NC2 [midazolam]
- Km (CYP3A4 [8]): 1.8 µM

SMILES: COc1cc(/C=C/C(O)=C/C(=O)/C=C/c2ccc(O)cc2)ccc1O [Compound 12, demethoxycurcumin]
- IC50 (CYP1A2): 34 ± 14.2 µM
- IC50 (CYP3A4 [5]): 7 ± 1.7 µM
- IC50 (CYP2C9 [6]): 1.4 ± 0.2 µM

SMILES: COc1ccc2c(c1)[C@]13CCCC[C@@H]1[C@H](C2)N(C)CC3 [dextromorphone]
- Km (CYP2D6): 5 µM

SMILES: C=C1CCC2C(c3c(O)cc(CCCCC)cc3OC2(C)C)C1O (single isomer, unassigned) [Compound 5, 10-alpha-hydroxy-delta-9,11-hexahydro-cannabinol]
- Ki (CB1 [1]): 0.117 µM
- Ki (human CB2 receptor [4]): 0.129 µM

SMILES: COc1cc(/C=C/C(=O)CC(=O)/C=C/c2ccc(O)c(OC)c2)ccc1O [Compound 11, curcumin]
- IC50 (CYP1A2): > 100 µM

SMILES: C=C1CCC2C(c3c(O)cc(CCCCC)cc3OC2(C)C)C1O (single isomer, unassigned) [Compound 4, 10-beta-hydroxy-delta-9,11-hexahydro-cannabinol]
- Ki (CB1 [1]): 0.83 µM
- Ki (human CB2 receptor [4]): 3.27 µM

SMILES: O=C(O)Cc1ccccc1Nc1c(Cl)cccc1Cl [diclofenac]
- Km (CYP2C9 [9]): 3.5 µM

SMILES: CCCCCc1cc(O)c2c(c1)OC(C)(C)c1ccc(C)cc1-2 [CBN, cannabinol]
- Km (UGT1A10): 55 µM
